The values that follow come from ChEMBL document CHEMBL1201862, “PubChem BioAssay data set” (2004).

In general, EC50 refers to the concentration that produces a half-maximal response. For orientation: AC50 means the midpoint of the concentration-response curve, whichever way the signal moves.

Experiment [1] is described as follows: viability of PTEN-deleted HCT116 cells – cell-based, HCT116 PTEN knockout, dose response (AID 1047).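 Note: HCT116 colon tumor cells with PTEN knocked out; cells exposed to compound for 60 hours before readout; potency for loss of cell viability measured by luminescence.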 Type of experiment: functional.
The nature of experiment [2]: viability of HCT116 lacking mutant beta-catenin – cell-based, human colon tumor, dose response (AID 1045).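 Note: HCT116 colon tumor cells with beta catenin knocked out; cells exposed to compound for 60 hours.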 Format: functional.
Experiment [3] addresses T1, Ubiquitin-conjugating enzyme E2 N (Homo sapiens, UniProt P61088).
T1 sequence (P61088 whole entry): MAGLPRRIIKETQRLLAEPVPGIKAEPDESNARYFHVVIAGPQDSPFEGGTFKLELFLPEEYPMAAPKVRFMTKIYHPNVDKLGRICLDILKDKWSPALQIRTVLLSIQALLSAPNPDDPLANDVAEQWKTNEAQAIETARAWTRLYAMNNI
Type of experiment: functional.

Experiment [4] deals with T2, Microphthalmia-associated transcription factor (Homo sapiens, UniProt O75030).
T2 sequence (O75030 whole entry): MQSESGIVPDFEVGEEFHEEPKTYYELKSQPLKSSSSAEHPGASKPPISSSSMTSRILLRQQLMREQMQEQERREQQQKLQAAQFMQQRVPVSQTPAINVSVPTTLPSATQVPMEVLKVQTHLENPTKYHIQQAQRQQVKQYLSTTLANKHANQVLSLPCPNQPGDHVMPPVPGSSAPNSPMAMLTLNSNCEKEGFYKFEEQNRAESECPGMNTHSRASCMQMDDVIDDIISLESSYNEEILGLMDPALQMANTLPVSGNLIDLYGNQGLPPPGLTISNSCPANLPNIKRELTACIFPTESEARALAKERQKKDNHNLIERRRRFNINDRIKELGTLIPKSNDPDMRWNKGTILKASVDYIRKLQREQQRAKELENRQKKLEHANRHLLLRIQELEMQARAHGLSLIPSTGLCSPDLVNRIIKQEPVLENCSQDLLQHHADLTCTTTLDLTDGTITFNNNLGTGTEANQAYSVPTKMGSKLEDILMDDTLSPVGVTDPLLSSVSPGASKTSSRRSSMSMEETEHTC
The experiment can be described thus: reducers of TRPM1 reporter luminescence, concentration series – cell-based, SK-MEL-5, cherry-picked, set 3, MITF inhibitor project, dose response (AID 493073).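 Note: SK-MEL-5 melanoma cells with luciferase driven by the MITF target TRPM1 promoter.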 Type of experiment: functional.

A further experiment relates to A-375. The experiment can be described thus: MITF: Counter assay: A375 proliferation Measured in Cell-Based System Using Plate Reader - 2084-03_Inhibitor_Dose_DryPowder_Activity. [Related pubchem assays (depositor defined):AID488944]. Format: functional. The following applies: Homo sapiens.
Experiment [5] is described as follows: Luminescence Cell-Based Dose Confirmation HTS to Identify Activators of 5'UTR Stem-Loop Driven Alpha-Synuclein mRNA Translation in H4 Neuroglioblastoma Cells. [Related pubchem assays: 1829 (Project Summary), 1814 (Primary HTS)]. Format: functional.
Experiment [6] can be described thus: Luminescence Cell-Based Dose Response HTS to Identify Activators of Luciferase Translation or Activity in H4 […] Cells. [Related pubchem assays: 1829 (Project Summary), 1814 (Primary HTS)]. Type of experiment: functional.
Another experiment has as its system H4. The experiment can be described thus: Luminescence Cell-Based Dose Response HTS to Identify Activators of 5'UTR Stem-Loop Driven Prion Protein mRNA Translation in H4 Neuroglioblastoma Cells. [Related pubchem assays: 1829 (Project Summary), 1814 (Primary HTS)]. Format: functional. The conditions noted are these: Homo sapiens.
Experiment [7] relates to HEK293. The experiment can be described thus: cells. Format: functional, cell-based. The following applies: Homo sapiens.
Experiment [8] addresses Nuclear receptor subfamily 0 group B member 1 (Homo sapiens, UniProt P51843). The experiment can be described thus: Luminescence-based cell-based high throughput dose response assay for inhibitors of the orphan nuclear receptor subfamily 0, group B, member 1 (DAX1; NR0B1). [Related pubchem assays (depositor defined):AID504766, AID504790]. Type of experiment: functional.
For another experiment, the target named is Beta-galactosidase (Escherichia coli, UniProt Q8VNN2). The experiment can be described thus: detection-enzyme interference by beta-gal modulators – biochemical, E. coli enzyme, set 3, artefact control for CCR6 antagonist project, dose response (AID 504712). Format: functional.
Beta-galactosidase, sequence (Q8VNN2 whole entry): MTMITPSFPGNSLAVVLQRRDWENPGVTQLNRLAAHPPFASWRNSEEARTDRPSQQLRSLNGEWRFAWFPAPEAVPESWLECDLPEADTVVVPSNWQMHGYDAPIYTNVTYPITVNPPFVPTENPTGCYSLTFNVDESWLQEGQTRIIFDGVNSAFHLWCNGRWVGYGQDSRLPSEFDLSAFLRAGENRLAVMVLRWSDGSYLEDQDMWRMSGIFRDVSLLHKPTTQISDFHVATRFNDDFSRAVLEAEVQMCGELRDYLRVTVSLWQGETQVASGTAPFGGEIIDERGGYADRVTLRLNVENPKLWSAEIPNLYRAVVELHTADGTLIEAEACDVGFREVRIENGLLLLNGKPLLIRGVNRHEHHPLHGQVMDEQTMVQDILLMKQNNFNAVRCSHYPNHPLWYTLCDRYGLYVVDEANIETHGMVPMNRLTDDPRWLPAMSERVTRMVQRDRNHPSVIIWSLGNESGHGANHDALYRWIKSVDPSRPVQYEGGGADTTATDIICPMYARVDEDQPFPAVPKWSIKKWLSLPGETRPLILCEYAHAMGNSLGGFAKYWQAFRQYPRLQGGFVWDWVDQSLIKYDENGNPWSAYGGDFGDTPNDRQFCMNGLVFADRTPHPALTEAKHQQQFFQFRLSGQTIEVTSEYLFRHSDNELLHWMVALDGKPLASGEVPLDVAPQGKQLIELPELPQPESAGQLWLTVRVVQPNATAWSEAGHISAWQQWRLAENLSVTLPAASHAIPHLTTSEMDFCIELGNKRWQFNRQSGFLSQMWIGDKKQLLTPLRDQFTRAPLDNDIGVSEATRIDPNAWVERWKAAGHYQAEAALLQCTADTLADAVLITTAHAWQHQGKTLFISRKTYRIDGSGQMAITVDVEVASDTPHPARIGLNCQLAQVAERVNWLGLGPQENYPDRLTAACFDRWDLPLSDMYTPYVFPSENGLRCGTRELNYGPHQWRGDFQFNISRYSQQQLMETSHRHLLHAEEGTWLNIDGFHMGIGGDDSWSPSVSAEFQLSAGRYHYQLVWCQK
For experiment [9], the target named is T3, Polyadenylate-binding protein 1 (Homo sapiens, UniProt P11940). The experiment can be described thus: MLLE binding blockers, Cy5 peptide tracer – biochemical, fluorescence polarization, Cy5-PAM2 peptide, secondary, miRNA deadenylation inhibitor project, dose response (AID 602260). Format: functional. The following applies: read-out: IC50_Mean. Background: Fluorescence polarisation rises when a labelled molecule tumbles more slowly, as on binding a larger partner.
T3 sequence (P11940 whole entry): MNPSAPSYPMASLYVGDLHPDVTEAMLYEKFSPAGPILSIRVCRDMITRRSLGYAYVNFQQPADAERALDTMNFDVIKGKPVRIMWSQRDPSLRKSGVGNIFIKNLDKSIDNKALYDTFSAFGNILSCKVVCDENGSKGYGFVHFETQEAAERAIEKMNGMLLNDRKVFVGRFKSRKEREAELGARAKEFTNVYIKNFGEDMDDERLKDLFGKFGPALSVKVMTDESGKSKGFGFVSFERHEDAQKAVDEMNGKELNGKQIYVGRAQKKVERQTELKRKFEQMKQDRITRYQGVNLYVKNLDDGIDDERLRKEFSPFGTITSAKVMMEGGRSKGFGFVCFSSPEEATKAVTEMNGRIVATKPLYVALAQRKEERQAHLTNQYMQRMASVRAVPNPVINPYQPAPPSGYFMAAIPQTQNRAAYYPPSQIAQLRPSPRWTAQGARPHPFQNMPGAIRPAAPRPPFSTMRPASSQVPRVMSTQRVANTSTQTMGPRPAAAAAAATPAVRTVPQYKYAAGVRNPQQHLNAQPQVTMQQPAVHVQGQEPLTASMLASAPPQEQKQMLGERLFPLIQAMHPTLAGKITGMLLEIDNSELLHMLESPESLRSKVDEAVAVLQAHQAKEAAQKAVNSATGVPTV

The target of experiment [10] is T3, Polyadenylate-binding protein 1. The experiment can be described thus: MLLE domain peptide-binding blockers, IC50 – biochemical, fluorescence polarization, FITC-PAM2 peptide, dose response (AID 602259). Type of experiment: functional. The conditions noted are these: read-out: IC50_Mean.
Experiment [11] relates to HEK293. The experiment can be described thus: cells. The conditions noted are these: Homo sapiens.
For experiment [12], the system named is HEK293. The experiment can be described thus: cells. The conditions noted are these: Homo sapiens. The source holds these as a separate data set.

Activity calls are given as the source filed them. A value given as a limit tells only on which side of the number the result lay.

Nuclear receptor subfamily 0 group B member 1, sequence (P51843 whole entry): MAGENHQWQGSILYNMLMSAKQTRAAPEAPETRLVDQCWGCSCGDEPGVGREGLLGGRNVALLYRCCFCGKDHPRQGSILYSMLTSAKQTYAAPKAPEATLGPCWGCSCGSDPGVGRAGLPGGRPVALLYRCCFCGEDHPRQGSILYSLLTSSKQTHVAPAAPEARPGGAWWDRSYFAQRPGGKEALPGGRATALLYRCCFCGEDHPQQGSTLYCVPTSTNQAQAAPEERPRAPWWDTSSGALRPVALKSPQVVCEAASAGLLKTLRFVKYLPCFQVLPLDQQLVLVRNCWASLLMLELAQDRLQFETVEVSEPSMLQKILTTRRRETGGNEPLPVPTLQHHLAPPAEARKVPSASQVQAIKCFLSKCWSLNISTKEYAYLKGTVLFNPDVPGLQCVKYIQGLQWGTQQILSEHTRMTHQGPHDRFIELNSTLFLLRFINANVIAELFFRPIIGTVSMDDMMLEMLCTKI

For the compound `COc1ccc(-c2nn(-c3ccccc3)cc2/C=N/N=C(N)N)cc1OC`, the values for the concentration giving a half-maximal response (EC50) in [1] and in experiment [2] were 4.55 µM (active) and 4.78 µM (active), respectively. In addition, the IC50 in experiment [3] is > 20 µM (inactive). Moreover, the half-maximal activity concentration (AC50) is 14.6 µM (active) in experiment [4] and 17.4 µM (active) in the experiment with A-375.
As to `COC(=O)c1cc2c(s1)-c1ccc(OC)cc1CC2`, the concentration giving a half-maximal response (EC50) in [5] is 9.47 µM (active); in experiment [6], 18.7 µM (active); in the experiment with H4, 46.2 µM (active). Also, the IC50 is > 22.5 µM (inactive) in the experiment on HEK293 [7] and > 67.5 µM (inactive) in experiment [8].
As to `CN(C)CCCN1C(=O)c2cccc3c([N+](=O)[O-])ccc(c23)C1=O`, the IC50 is > 66.6 µM (inactive) on Beta-galactosidase, > 66 µM (inactive) in [9] and 60.1 µM (inactive) in experiment [10]. Besides, the EC50 in the experiment on HEK293 [11] and in the experiment with HEK293 [12] was > 59.6 µM (inactive) each time.
